Source: US8192962B2, “Processes for detecting toxic substances” (Daikin Industries, Ltd., priority 2001, dated 2012)

Tested on: Mitochondria-located protein genes
Assay: DNA chip mRNA expression in yeast, mitochondria-located protein genes (Table 2)
Format: cell-based, Saccharomyces cerevisiae S288C
Conditions: cells incubated two hours with the chemical substance
Procedure, shortened: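 Ratios compare mRNA levels in stressed and control S. cerevisiae. Each toxicant was applied for two hours to log-phase cultures at 25° C. at a sub-lethal, growth-inhibiting level; fluorescent cDNA (Cy3- or Cy5-dUTP) was hybridized to a genome-wide yeast chip for over 12 h at 65° C.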

Compound: CCCCC[C@H](O)CC(=O)CCc1ccc(O)c(OC)c1 [(13), gingerol]
- The level of expressed mRNA in the presence of chemical substance/The level of expressed mRNA in the absence of chemical substance (yeast gene YAL039C): 1.6
- The level of expressed mRNA in the presence of chemical substance/The level of expressed mRNA in the absence of chemical substance (yeast gene YAL044C): 1.1
- The level of expressed mRNA in the presence of chemical substance/The level of expressed mRNA in the absence of chemical substance (yeast gene YBR291C): 1.0
- The level of expressed mRNA in the presence of chemical substance/The level of expressed mRNA in the absence of chemical substance (yeast gene YCL009C): 1.6
- The level of expressed mRNA in the presence of chemical substance/The level of expressed mRNA in the absence of chemical substance (yeast gene YDL067C): 0.6
- The level of expressed mRNA in the presence of chemical substance/The level of expressed mRNA in the absence of chemical substance (yeast gene YDR268W): 1.0
- The level of expressed mRNA in the presence of chemical substance/The level of expressed mRNA in the absence of chemical substance (yeast gene YDR377W): 0.7
- The level of expressed mRNA in the presence of chemical substance/The level of expressed mRNA in the absence of chemical substance (yeast gene YDR529C): 0.7
- The level of expressed mRNA in the presence of chemical substance/The level of expressed mRNA in the absence of chemical substance (yeast gene YGL068W): 1.0
- The level of expressed mRNA in the presence of chemical substance/The level of expressed mRNA in the absence of chemical substance (yeast gene YGL187C): 0.7
- The level of expressed mRNA in the presence of chemical substance/The level of expressed mRNA in the absence of chemical substance (yeast gene YGL191W): 1.1
- The level of expressed mRNA in the presence of chemical substance/The level of expressed mRNA in the absence of chemical substance (yeast gene YGR029W): 1.0
- The level of expressed mRNA in the presence of chemical substance/The level of expressed mRNA in the absence of chemical substance (yeast gene YGR112W): 1.1
- The level of expressed mRNA in the presence of chemical substance/The level of expressed mRNA in the absence of chemical substance (yeast gene YGR220C): 1.1
- The level of expressed mRNA in the presence of chemical substance/The level of expressed mRNA in the absence of chemical substance (yeast gene YHR037W): 1.1
- The level of expressed mRNA in the presence of chemical substance/The level of expressed mRNA in the absence of chemical substance (yeast gene YIL070C): 0.7
- The level of expressed mRNA in the presence of chemical substance/The level of expressed mRNA in the absence of chemical substance (yeast gene YIL094C): 0.7
- The level of expressed mRNA in the presence of chemical substance/The level of expressed mRNA in the absence of chemical substance (yeast gene YJL096W): 0.7
- The level of expressed mRNA in the presence of chemical substance/The level of expressed mRNA in the absence of chemical substance (yeast gene YKL150W): 1.8
- The level of expressed mRNA in the presence of chemical substance/The level of expressed mRNA in the absence of chemical substance (yeast gene YKL194C): 1.1
- The level of expressed mRNA in the presence of chemical substance/The level of expressed mRNA in the absence of chemical substance (yeast gene YLL001W): 1.7
- The level of expressed mRNA in the presence of chemical substance/The level of expressed mRNA in the absence of chemical substance (yeast gene YMR023C): 1.1
- The level of expressed mRNA in the presence of chemical substance/The level of expressed mRNA in the absence of chemical substance (yeast gene YMR203W): 1.1
- The level of expressed mRNA in the presence of chemical substance/The level of expressed mRNA in the absence of chemical substance (yeast gene YMR267W): 0.7
- The level of expressed mRNA in the presence of chemical substance/The level of expressed mRNA in the absence of chemical substance (yeast gene YNL284C): 1.0
- The level of expressed mRNA in the presence of chemical substance/The level of expressed mRNA in the absence of chemical substance (yeast gene YOR187W): 0.7
- The level of expressed mRNA in the presence of chemical substance/The level of expressed mRNA in the absence of chemical substance (yeast gene YOR316C): 1.6
- The level of expressed mRNA in the presence of chemical substance/The level of expressed mRNA in the absence of chemical substance (yeast gene YPL215W): 0.7
- The level of expressed mRNA in the presence of chemical substance/The level of expressed mRNA in the absence of chemical substance (yeast gene YPR134W): 1.1
